Bounds are passed on as bounds.

As a reminder, the EC50 is the concentration needed to bring the measured effect to its halfway point.

The target of data set [1] is T1, human GLP-1R receptor (Homo sapiens, UniProt P43220).
T1 construct: expressed in transfected cells
The experiment in a line: GLP-1R low expression cell assay (cAMP TR-FRET, CHO-K1_hGLP-1Rlow_clone10). The data set is classed as cell-based. As to conditions: CHO-K1_hGLP-1Rlow_clone10 cells, percent activation relative to control GLP-1 peptide. As to the method: Stable cell lines expressing high and low GLP-1R surface expression are generated in CHO-K1 cells transfected (Fugene 6) with a puromycin selectable DNA plasmid encoding human GLP-1R receptor (accession number: NM_002062.5) under control of an EF1A promoter. Transfected cells are seeded into 24-well plates (9,000 cells/well) containing complete medium and incubated in a humidified incubator at 37° C. with 5% carbon dioxide. After overnight incubation, medium is replaced with complete medium supplemented with puromycin (6 μg/mL) and refreshed every 2-3 days to select for stably transfected cells. Individual pools of selected cells are expanded prior to analysis for responsiveness to GLP-1 control peptide using a TR-FRET assay to detect cAMP (LANCE Ultra cAMP Assay, Perkin Elmer). Briefly, cells are collected in Versene solution, plated in 384-well plates (1,000 cells/well) and combined with serially diluted GLP-1R control peptide (10 nL) using an acoustic dispenser (ECHO). Plates are incubated for 30 minutes at 25° C. prior to the addition of EU-cAMP tracer (5 μL) and Ulight-anti-cAMP (5 μL) reagents to each well, followed by 15 minutes incubation at 25° C. TR-FRET signal is detected using an EnVision Multimode Plate Reader (excitation=320 nm; emission=615 and 655 nm). Dose-response curves are used to generate EC50 values as a measure of responsiveness to the GLP-1R control peptide. Selected cell lines are monitored for responsiveness over multiple passages to ensure stability. […] Briefly, GLP-1R expression is analyzed by flow cytometry using a fluorescein-labeled Exendin-4 peptide fluorescent probe (FLEX). Cells are harvested in Versene solution and washed 3-times with PBS+0.5% BSA before incubation with FLEX reagent (10 μM) for 2 hours at room temperature. After incubation, cells are washed 3-times in PBS+0.5% BSA before final resuspension in PBS prior to analysis by flow cytometry to measure FLEX mean fluorescence intensity (MFI) as a measure of GLP-1R expression on the cell surface.
For compound testing in the CHO-K1_hGLP-1Rlow_clone10 cell lines, cells are seeded in 384-well plates (1,000 cells/well). Test compounds are serially diluted in DMSO (10-point, 3-fold dilution), added to wells using an ECHO dispenser (10 nL/well) and plates are centrifuged for 1 min and agitated for 2 min at room temperature prior to 30-minute incubation at 25° C. After incubation, Eu-cAMP (5 μL) and Ulight-anti-cAMP (5 μL) reagents are added to each well, followed by centrifugation for 1 minute, agitation for 2 minutes at room temperature, and final incubation of the plates at 25° C. for 15 minutes. Plates are read using an EnVision microplate reader (excitation=320 nm; emission=615 and 655 nm). Dose-response curves are generated from duplicate wells based on percent activation calculated relative to a control GLP-1 peptide agonist that was run in parallel. EC50 values are determined by fitting percent activation as a function of compound concentration using the Hill equation (XLfit).
Stable cell lines expressing high and low GLP-1R surface expression were generated in CHO-K1 cells transfected (Fugene 6) with a puromycin selectable DNA plasmid encoding human GLP-1R receptor (accession number: NM_002062.5) under control of an EF1A promoter. Transfected cells were seeded into 24-well plates (9,000 cells/well) containing complete medium and incubated in a humidified incubator at 37° C. with 5% carbon dioxide. After overnight incubation, medium was replaced with complete medium supplemented with puromycin (6 μg/mL) and refreshed every 2-3 days to select for stably transfected cells. Individual pools of selected cells were expanded prior to analysis for responsiveness to GLP-1 control peptide using a TR-FRET assay to detect cAMP (LANCE Ultra cAMP Assay, Perkin Elmer).

The nature of data set [2]: Metabolic stability in hepatocytes. As to conditions: cryopreserved human hepatocytes (suspension), 1×10^6 cells/mL, intrinsic clearance, read-out: hHep CLint. The data set is classed as in vitro ADME. The procedure:
(§1) Test compounds are incubated in human hepatocytes and stability is assessed from the substrate […] approach. Test compounds are dissolved in dimethyl sulfoxide (DMSO) to create a 10 mM Stock, and then further diluted to create a 1000× Working Stock of 1 mM with DMSO in 96-well plates for test compounds and the positive control (midazolam). Vials containing cryopreserved hepatocytes are removed from the liquid nitrogen tank and immediately immersed in a 37° C. water bath. The vials are shaken gently until the contents had thawed and were then immediately emptied into 48 mL of pre-warmed HT Medium in a 50 mL conical tube. Cells remaining in the vial are resuspended with 1.0 mL of pre-warmed HT Medium and added to the conical tube. The tube is capped and then gently inverted several times to resuspend the hepatocytes. The cell suspension is centrifuged at 50×g at room temperature for 5 minutes and the supernatant discarded. The cell pellet is loosened by gently swirling the centrifuge tube and is re-suspended in 4 mL of warm Dulbecco's Modified Eagle medium (DMEM). Cell density is determined by a cell counter by Nexcelom, and DMEM medium is added to obtain a target density of 1×10^6 cells/mL. The assay is carried out in 96-well microtiter plates. Test Compounds are incubated at 1 μM with 1×10^6 cells/mL hepatocytes in DMEM for 0, 30, 60, 120 and 240 minutes. The incubation is carried out with gentle shaking at 37° C. under a humid atmosphere of 95% air/5% CO2. The volume of the incubation mixture is 37 μL with a final 0.1% DMSO. At each of the time points, the incubation is stopped by adding 150 μL quenching solution (100% acetonitrile, 0.1% formic acid containing bucetin as an internal standard for positive ESI mode). Subsequently, the mixtures are vortexed for 20 min and centrifuged at 4,000 RPM at 10° C. The supernatant (80 μL) is transferred to a clean 96-well plate and analyzed by LC-MS/MS. Midazolam at 1 μM with a final 0.1% DMSO is included as a positive control to verify assay performance. The percent parent remaining, intrinsic and predicted hepatic clearance and t1/2 are calculated. All samples are analyzed by LC-MS/MS using an AB Sciex API 4000 instrument, coupled to a Shimadzu LC-20AD LC Pump system. Separation is achieved using a Waters Atlantis T3 dC18 reverse phase HPLC column (20 mm×2.1 mm) at a flow rate of 0.5 mL/min. The mobile phase consisted of 0.1% formic acid in water (solvent A) and 0.1% formic acid in 100% acetonitrile (solvent B). Elution conditions are detailed below.
(§2) The ion optics of each test compound are optimized for their declustering potential (DP), […] (CE), collision-cell exit potential (CXP) and used in a selected ion monitoring experiment in the positive ion mode. The peak area ratio of each test compound to internal standard is then evaluated for stability. The extent of metabolism is calculated based on the disappearance of the test compound, compared to its initial concentration. The initial rates of clearance of the test compound are calculated using the linear regression plot of semi-log % remaining of the compound versus time. The elimination rate constant (k) of the linear regression plot is then used to determine t1/2 and the intrinsic clearance (CLint) using the following formula, where Chepatocyte (million cells/mL) is the cell density of the incubation: k=−slope t1/2=0.693/k CLint=k/Chepatocyte
(§3) Test compounds were incubated in human hepatocytes and stability was assessed from the substrate […] approach. Test compounds were dissolved in dimethyl sulfoxide (DMSO) to create a 10 mM Stock, and then further diluted to create a 1000× Working Stock of 1 mM with DMSO in 96-well plates for test compounds and the positive control (midazolam). Vials containing cryopreserved hepatocytes were removed from the liquid nitrogen tank and immediately immersed in a 37° C. water bath. […]

The test system of data set [3] is human hepatocytes. The experiment in a line: Metabolic stability in hepatocytes. As to conditions: 1 μM, 1×10^6 cells/mL, 0-240 min. The data set is classed as in vitro ADME. As to the method:
as §1, §2, §3

T1 sequence (P43220 24-463): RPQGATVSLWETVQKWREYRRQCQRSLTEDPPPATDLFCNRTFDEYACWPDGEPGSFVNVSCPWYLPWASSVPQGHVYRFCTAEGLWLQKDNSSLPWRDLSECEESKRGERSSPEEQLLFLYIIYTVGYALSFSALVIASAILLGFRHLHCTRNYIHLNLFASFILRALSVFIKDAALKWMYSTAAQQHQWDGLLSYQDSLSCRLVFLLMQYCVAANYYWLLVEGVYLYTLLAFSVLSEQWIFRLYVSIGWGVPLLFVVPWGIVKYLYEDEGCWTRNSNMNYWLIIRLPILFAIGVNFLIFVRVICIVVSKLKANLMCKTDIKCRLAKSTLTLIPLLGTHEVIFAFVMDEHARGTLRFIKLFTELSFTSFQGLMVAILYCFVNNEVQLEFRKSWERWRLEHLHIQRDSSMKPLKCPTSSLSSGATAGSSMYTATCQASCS

For `N#Cc1ccc(COc2cccc(N3CCN(Cc4nc5ccc(C(=O)O)cc5n4C[C@@H]4CCO4)[C@H]4CC43)n2)c(F)c1` (single isomer, unassigned) [Compound 42], the EC50 in data set [1] was 50 to 100 nM. Besides, the CLint scaled at 1 μM in data set [2] is 5.01 mL/min/kg. In data set [3], the hHep t1/2 is over 8 h.
As for `CCn1nncc1Cn1c(CN2CCN(c3cccc(OCc4ccc(C#N)cc4F)n3)C3C[C@@H]32)nc2ccc(C(=O)O)cc21` (some centres unmarked) [Compound 44, 2-((5-(6-((4-Cyano-2-fluorobenzyl)oxy)pyridin-2-yl)-2,5-diazabicyclo[4.1.0]heptan-2-yl)methyl)-1-((1-ethyl-1H-1,2,3-triazol-5-yl)methyl)-1H-benzo[d]imidazole-6-carboxylic Acid], the CLint scaled at 1 μM in data set [2] turned out to be 5.01 mL/min/kg. In data set [3], this compound came in with a hHep t1/2 of over 8 h.
In data set [1], `N#Cc1ccc(COc2ccnc(N3CCN(Cc4nc5ccc(C(=O)O)cc5n4Cc4cncs4)[C@H]4C[C@H]43)n2)c(F)c1` [Compound 19, 2-((5-(4-((4-Cyano-2-fluorobenzyl)oxy)pyrimidin-2-yl)-2,5-diazabicyclo[4.1.0]heptan-2-yl)methyl)-1-(thiazol-5-ylmethyl)-1H-benzo[d]imidazole-6-carboxylic Acid] returned an EC50 of over 100 nM. Besides, in data set [2], the CLint scaled at 1 μM came to 5.01 mL/min/kg. The hHep t1/2 in data set [3] is over 8 h.

The values are drawn from patent US12410163B2, “Compounds as GLP-IR agonists” (Terns Pharmaceuticals, Inc., priority 2022, dated 2025).
